In general, IC50 refers to the midpoint of a concentration-inhibition curve. A low value points to higher potency.

Chain of Endothelial lipase (EL) (Q9Y5X9 21-500): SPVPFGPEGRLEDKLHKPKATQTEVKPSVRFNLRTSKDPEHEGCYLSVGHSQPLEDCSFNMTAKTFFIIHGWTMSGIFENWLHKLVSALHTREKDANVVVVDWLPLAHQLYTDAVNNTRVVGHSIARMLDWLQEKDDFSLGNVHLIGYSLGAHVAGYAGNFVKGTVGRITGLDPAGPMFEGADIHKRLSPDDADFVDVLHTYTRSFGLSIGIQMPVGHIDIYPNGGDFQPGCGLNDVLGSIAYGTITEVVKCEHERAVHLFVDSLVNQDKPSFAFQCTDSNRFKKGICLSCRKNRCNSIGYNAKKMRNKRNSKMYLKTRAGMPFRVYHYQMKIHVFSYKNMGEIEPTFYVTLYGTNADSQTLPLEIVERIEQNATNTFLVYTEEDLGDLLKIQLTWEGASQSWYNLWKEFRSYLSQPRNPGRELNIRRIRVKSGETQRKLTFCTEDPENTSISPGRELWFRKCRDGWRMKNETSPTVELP

In the test the target is Endothelial lipase (EL) (Homo sapiens (Human), UniProt Q9Y5X9). The experiment in a line: Endothelial lipase (EL) activity assay with fluorescent substrate A10070 in DMPG vesicles. Type of test: biochemical. On the procedure:
Endothelial lipase activity was measured using a fluorescent substrate, A10070, (Invitrogen, CA) doped into an artificial vesicle containing DMPG (Avanti Polar Lipids) as the excipient. Vesicles were prepared by combining 285 μL of 1 mM DMPG in a 1:1 mixture of MeOH and CHCl3 with 15 μL of 1 mM A10070 in a 1:1 mixture of MeOH and CHCl3. The mixture was dried under nitrogen and resuspended in 150 μL of 50 mM HEPES pH 8.0 buffer containing 100 mM NaCl and 0.2 mM EDTA. The sample was allowed to sit at rt for 15 min and then was sonicated 3×4 mins on ice with a Branson Sonicator using duty cycle 1. This preparation provides vesicles with a mole fraction of 0.05 for the FRET substrate.
The enzymatic assay was measured using white, opaque 96-well half area plates. Each well contained 60 μL of assay buffer (50 mM HEPES pH 8.0, 50 mM NaCl and 1 mM CaCl2) and 2 ul of a DMSO solution containing compound of interest. Conditioned media obtained from HT-1080 cells, which were transformed by RAGE technology (Athersys) to overexpress endogenous EL, was added and the reaction was allowed to incubate for 20 min at 37° C. with gentle agitation. The reaction was started by the addition of 20 μL of a 1:4 dilution of vesicles. The final total reaction volume was 100 μL. The reaction rates were measured on a Gemini plate reader with an excitation wavelength of 488 nm and an emission of 530 nm. Readings were taken every 20 seconds for 10 min with agitation between each reading. The slope of the linear portion of the readout was used to calculate the rate of the reaction.
`NC(=O)[C@@H](CCC(F)(F)F)Nc1nnc(C(=O)c2nc3ccc(-c4ccccc4)cc3s2)o1` [Example 75, (R)-5,5,5-trifluoro-2-((5-(6-phenylbenzo[d]thiazole-2-carbonyl)-1,3,4-oxadiazol-2-yl)amino) pentanamide] registered an IC50 of 28 nM.

`O=C(c1nnc(NCCc2cccnc2)o1)c1nc2ccc(-c3ccccc3)cc2s1` [Example 76, (6-phenylbenzo[d]thiazol-2-yl)(5-((2-(pyridin-3-yl)ethyl)amino)-1,3,4-oxadiazol-2-yl)methanone] registered a concentration for half-maximal inhibition (IC50) of 36 nM.

Turning to `O=C(c1nnc(N2CC[C@@H](c3ccccc3)C2)o1)c1nc2ccc(-c3ccccc3)cc2s1` [Example 79, (S)-(6-phenylbenzo[d]thiazol-2-yl)(5-(3-phenylpyrrolidin-1-yl)-1,3,4-oxadiazol-2-yl)methanone], the IC50 was 310 nM.

With `O=C(c1nnc(N2CC[C@H](c3ccccc3)C2)o1)c1nc2ccc(-c3ccccc3)cc2s1` [Example 80, (R)-(6-phenylbenzo[d]thiazol-2-yl)(5-(3-phenylpyrrolidin-1-yl)-1,3,4-oxadiazol-2-yl)methanone], the IC50 was determined as 450 nM.

For `O=C(c1nnc(N2CC[C@H](OCc3ccccc3)C2)o1)c1nc2ccc(-c3ccccc3)cc2s1` [Example 81, (S)-(5-(3-(benzyloxy)pyrrolidin-1-yl)-1,3,4-oxadiazol-2-yl)(6-phenylbenzo[d]thiazol-2-yl)methanone], the half-maximal inhibitory concentration (IC50) came out at 490 nM.

Take `O=C(c1nnc(N[C@H]2CCNC2=O)o1)c1nc2ccc(-c3ccc(OC(F)F)cc3)cc2s1` [Example 82, (S)-3-((5-(6-(4-(difluoromethoxy)phenyl)benzo[d]thiazole-2-carbonyl)-1,3,4-oxadiazol-2-yl)amino)pyrrolidin-2-one]: the 50% inhibitory concentration (IC50) was under 10 nM.

Consider `NS(=O)(=O)c1ccc(-c2ccc3nc(C(=O)c4nnc(N[C@H]5CCNC5=O)o4)sc3c2)cc1` [Example 83, (S)-4-(2-(5-((2-oxopyrrolidin-3-yl)amino)-1,3,4-oxadiazole-2-carbonyl)benzo[d]thiazol-6-yl)benzenesulfonamide], for which the IC50 was under 10 nM.

In turn, `O=C(c1nnc(N(CC(F)(F)F)[C@H]2CCNC2=O)o1)c1nc2ccc(-c3ccccc3)cc2s1` [Example 84, (S)-3-((5-(6-Phenylbenzo[d]thiazole-2-carbonyl)-1,3,4-oxadiazol-2-yl)(2,2,2-trifluoroethyl)amino)pyrrolidin-2-one] showed an IC50 of under 10 nM.

As to `O=C(c1nnc(N(Cc2nnc(C3CC3)o2)[C@H]2CCNC2=O)o1)c1nc2ccc(-c3ccccc3)cc2s1` [Example 85, (S)-3-(((5-Cyclopropyl-1,3,4-oxadiazol-2-yl)methyl)(5-(6-phenylbenzo[d]thiazole-2-carbonyl)-1,3,4-oxadiazol-2-yl)amino)pyrrolidin-2-one], half-maximal inhibition (IC50) required 35 nM.

On to `CN(c1nnc(C(=O)c2nc3ccc(-c4ccccc4)cc3s2)o1)[C@H]1CCNC1=O` [Example 86, (S)-3-(Methyl(5-(6-phenylbenzo[d]thiazole-2-carbonyl)-1,3,4-oxadiazol-2-yl)amino)pyrrolidin-2-one], for which the half-inhibitory concentration (IC50) was 101 nM.

In turn, `O=C(c1nnc(N(Cc2ccccc2)[C@H]2CCNC2=O)o1)c1nc2ccc(-c3ccccc3)cc2s1` [Example 87, (S)-3-(Benzyl(5-(6-phenylbenzo[d]thiazole-2-carbonyl)-1,3,4-oxadiazol-2-yl)amino)pyrrolidin-2-one] had a half-maximal inhibitory concentration (IC50) of 11 nM.

In the case of `O=C(c1nnc(N2CCN(c3ccc(C(F)(F)F)cc3)CC2)o1)c1nc2ccc(-c3ccccc3)cc2s1` [Example 88, (6-Phenylbenzo[d]thiazol-2-yl)(5-(4-(4-(trifluoromethyl)phenyl)piperazin-1-yl)-1,3,4-oxadiazol-2-yl)methanone], the concentration for half-maximal inhibition (IC50) is 494 nM.

With `Nc1nnc(C(=O)c2nc3ccc(-c4ccccc4)cc3s2)o1` [Example 89, (5-Amino-1,3,4-oxadiazol-2-yl)(6-phenylbenzo[d]thiazol-2-yl)methanone], the half-maximal inhibitory concentration (IC50) came out at 29 nM.

On to `Cc1ccc(S(=O)(=O)Nc2nnc(C(=O)c3nc4ccc(-c5ccccc5)cc4s3)o2)cc1` [Example 90, 4-Methyl-N-(5-(6-phenylbenzo[d]thiazole-2-carbonyl)-1,3,4-oxadiazol-2-yl)benzenesulfonamide], for which the IC50 came to 340 nM.

In turn, `O=C(c1nnc(N[C@H]2CCN(CC(F)(F)F)C2=O)o1)c1nc2ccc(-c3ccccc3)cc2s1` [Example 91, (S)-3-((5-(6-Phenylbenzo[d]thiazole-2-carbonyl)-1,3,4-oxadiazol-2-yl)amino)-1-(2,2,2-trifluoroethyl)pyrrolidin-2-one] came in with an IC50 of 490 nM.

For the origin of these results see US9169240B2, “Ketone linked benzothiazole inhibitors of endothelial lipase” (BRISTOL-MYERS SQUIBB COMPANY, priority 2012, dated 2015).
